Values quoted from earlier work, collected in patent US6147189A, “Polypeptides that include conformation-constraining groups which flank a protein-protein interaction site” (Virginia Commonwealth University, priority 1997, dated 2000).
Where a SMILES comes first, the peptide text is derived from it.

System: receptors of sweet tasting papillae
Conditions: comparison value

COC(=O)[C@H](Cc1ccccc1)NC(=O)[C@@H](N)CC(=O)O [aspartame] (H-Asp-Phe-OMe)
Sweetness compared with sugar: 160 times sweeter than sugar
